Several values for one entry are separate records, joined by “and”; a condition that tells them apart may be missing. Equal entries are not always repeated.
What was measured:
Experiment in all cases: radiometric filter-binding kinase assay, Kinase HotSpot
Settings in all cases: compound 0.5 µM; ATP 10 µM
CDK5 CDK5R1 p35 (human) = CDK5 CDK5R1 p35 (human) (UniProt Q00535+Q15078)
DAPK3 (human) = DAPK3 (human) (UniProt O43293)
ROS1 (human) = ROS1 (human) (UniProt P08922)
MAPKAPK3 (human) = MAPKAPK3 (human) (UniProt Q16644)
PNCK (human) = PNCK (human) (UniProt Q6P2M8)
Chain of PNCK (human) (Q6P2M8 whole entry, looked up): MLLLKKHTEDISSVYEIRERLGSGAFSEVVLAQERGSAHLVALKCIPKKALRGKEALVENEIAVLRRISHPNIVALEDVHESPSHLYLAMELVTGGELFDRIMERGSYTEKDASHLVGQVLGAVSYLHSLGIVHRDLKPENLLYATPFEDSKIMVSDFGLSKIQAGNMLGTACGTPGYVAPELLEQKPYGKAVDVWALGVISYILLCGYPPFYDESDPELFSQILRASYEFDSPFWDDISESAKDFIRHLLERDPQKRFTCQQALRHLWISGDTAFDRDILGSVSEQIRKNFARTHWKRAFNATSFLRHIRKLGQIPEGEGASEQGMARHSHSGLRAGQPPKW

LTK (human) = LTK (human) (UniProt P29376)
MAP3K2 (human) = MAP3K2 (human) (UniProt Q9Y2U5)
FGR (human) = FGR (human) (UniProt P09769)
EPHA3 (human) = EPHA3 (human) (UniProt P29320)
AURKA (human) = AURKA (human) (UniProt O14965)
CHEK2 (human) = CHEK2 (human) (UniProt O96017)
PAK7 (human) = PAK7 (human) (UniProt Q9P286)
FYN (human) = FYN (human) (UniProt P06241)
FGFR2 (human) = FGFR2 (human) (UniProt P21802)
Chain of FGFR2 (human) (P21802 whole entry, looked up): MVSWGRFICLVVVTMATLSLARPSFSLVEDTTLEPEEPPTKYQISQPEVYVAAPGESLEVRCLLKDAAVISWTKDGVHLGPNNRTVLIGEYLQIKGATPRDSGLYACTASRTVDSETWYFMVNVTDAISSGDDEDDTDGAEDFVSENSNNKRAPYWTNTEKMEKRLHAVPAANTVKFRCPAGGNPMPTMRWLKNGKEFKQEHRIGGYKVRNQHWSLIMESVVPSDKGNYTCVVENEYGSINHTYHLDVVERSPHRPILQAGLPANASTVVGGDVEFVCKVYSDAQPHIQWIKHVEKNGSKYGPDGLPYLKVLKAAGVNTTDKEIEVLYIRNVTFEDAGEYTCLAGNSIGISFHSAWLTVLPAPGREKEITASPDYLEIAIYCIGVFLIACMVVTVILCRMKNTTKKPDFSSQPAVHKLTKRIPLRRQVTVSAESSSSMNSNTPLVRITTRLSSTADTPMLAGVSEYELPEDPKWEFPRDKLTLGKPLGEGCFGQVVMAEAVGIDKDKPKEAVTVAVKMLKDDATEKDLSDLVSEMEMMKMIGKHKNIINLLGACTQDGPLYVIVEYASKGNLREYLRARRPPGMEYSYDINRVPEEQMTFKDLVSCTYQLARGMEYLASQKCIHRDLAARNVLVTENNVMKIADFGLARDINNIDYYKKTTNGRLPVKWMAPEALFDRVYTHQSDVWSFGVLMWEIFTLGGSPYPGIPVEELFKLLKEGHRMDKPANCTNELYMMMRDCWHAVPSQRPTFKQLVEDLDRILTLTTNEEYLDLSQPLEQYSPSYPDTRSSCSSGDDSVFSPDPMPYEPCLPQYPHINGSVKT

PAK1 (human) = PAK1 (human) (UniProt Q13153)
Chain of PAK1 (human) (Q13153 whole entry, looked up): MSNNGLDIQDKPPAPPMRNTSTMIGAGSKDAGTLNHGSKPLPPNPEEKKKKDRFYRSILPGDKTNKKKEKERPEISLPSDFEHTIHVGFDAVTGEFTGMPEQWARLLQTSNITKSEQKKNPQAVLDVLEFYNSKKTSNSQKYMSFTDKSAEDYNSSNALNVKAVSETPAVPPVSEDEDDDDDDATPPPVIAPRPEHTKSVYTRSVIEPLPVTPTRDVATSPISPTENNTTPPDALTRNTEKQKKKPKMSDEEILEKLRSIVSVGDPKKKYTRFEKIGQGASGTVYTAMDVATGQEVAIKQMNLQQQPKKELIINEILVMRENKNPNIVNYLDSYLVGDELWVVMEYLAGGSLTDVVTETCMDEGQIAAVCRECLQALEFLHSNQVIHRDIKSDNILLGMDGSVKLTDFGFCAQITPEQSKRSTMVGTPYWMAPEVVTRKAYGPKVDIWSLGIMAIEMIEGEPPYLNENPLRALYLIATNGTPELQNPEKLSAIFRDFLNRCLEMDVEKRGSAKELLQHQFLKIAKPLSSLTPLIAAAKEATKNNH

GRK6 (human) = GRK6 (human) (UniProt P43250)
PRKCE (human) = PRKCE (human) (UniProt Q02156)
CSNK1G2 (human) = CSNK1G2 (human) (UniProt P78368)
PKN1 (human) = PKN1 (human) (UniProt Q16512)
Chain of PKN1 (human) (Q16512 whole entry, looked up): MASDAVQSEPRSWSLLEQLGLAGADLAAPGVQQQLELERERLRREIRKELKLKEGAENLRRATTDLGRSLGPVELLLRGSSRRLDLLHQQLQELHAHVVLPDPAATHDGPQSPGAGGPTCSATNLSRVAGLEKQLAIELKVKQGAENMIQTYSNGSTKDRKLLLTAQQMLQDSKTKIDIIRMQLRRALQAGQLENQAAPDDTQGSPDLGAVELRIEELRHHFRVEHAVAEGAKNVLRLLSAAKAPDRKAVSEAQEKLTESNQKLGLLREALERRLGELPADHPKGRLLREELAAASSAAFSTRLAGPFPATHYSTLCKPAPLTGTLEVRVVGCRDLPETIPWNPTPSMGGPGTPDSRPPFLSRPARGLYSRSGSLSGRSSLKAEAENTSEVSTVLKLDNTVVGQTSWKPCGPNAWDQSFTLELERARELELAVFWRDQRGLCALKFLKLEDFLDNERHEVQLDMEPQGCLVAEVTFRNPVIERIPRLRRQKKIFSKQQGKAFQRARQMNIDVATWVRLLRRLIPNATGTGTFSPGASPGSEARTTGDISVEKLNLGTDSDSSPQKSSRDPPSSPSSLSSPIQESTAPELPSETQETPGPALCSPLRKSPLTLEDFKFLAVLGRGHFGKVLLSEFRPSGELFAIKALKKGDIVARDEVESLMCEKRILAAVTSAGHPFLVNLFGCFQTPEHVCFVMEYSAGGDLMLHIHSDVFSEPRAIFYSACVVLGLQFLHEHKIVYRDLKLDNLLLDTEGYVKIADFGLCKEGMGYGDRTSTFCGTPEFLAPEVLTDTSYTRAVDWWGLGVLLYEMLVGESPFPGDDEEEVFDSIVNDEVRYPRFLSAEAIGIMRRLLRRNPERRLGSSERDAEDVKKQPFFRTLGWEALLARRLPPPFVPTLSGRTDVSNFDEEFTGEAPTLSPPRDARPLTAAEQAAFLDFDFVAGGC

MARK1 (human) = MARK1 (human) (UniProt Q9P0L2)
EPHA1 (human) = EPHA1 (human) (UniProt P21709)
Chain of EPHA1 (human) (P21709 whole entry, looked up): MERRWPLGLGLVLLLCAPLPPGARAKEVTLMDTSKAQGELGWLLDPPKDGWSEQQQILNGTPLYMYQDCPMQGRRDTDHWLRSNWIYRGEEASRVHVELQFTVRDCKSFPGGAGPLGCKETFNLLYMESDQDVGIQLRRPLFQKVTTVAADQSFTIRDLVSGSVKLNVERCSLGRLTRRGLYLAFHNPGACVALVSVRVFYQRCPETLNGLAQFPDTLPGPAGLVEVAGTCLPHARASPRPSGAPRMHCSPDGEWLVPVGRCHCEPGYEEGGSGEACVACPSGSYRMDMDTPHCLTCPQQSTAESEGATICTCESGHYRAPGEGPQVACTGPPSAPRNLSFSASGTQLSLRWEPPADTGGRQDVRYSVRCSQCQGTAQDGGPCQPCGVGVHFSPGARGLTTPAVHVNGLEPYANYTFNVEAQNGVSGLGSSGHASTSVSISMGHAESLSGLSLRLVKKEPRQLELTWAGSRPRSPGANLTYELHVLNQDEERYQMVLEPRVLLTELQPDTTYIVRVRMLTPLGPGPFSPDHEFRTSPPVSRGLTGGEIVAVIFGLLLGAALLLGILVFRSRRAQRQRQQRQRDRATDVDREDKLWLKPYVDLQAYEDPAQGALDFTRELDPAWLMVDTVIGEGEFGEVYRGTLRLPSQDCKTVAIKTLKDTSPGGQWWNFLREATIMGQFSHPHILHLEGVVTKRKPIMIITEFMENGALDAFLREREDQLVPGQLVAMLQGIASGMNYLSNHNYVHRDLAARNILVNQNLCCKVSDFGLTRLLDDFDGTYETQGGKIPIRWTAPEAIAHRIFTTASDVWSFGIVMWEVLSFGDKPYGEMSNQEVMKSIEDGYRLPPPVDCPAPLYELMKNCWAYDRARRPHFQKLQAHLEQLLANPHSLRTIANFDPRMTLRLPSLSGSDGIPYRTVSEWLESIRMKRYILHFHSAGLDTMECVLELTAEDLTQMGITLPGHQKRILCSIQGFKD

CAMKK2 (human) = CAMKK2 (human) (UniProt Q96RR4)
PRKCH (human) = PRKCH (human) (UniProt P24723)
RPS6KB1 (human) = RPS6KB1 (human) (UniProt P23443)
MYLK2 (human) = MYLK2 (human) (UniProt Q9H1R3)
Chain of MYLK2 (human) (Q9H1R3 whole entry, looked up): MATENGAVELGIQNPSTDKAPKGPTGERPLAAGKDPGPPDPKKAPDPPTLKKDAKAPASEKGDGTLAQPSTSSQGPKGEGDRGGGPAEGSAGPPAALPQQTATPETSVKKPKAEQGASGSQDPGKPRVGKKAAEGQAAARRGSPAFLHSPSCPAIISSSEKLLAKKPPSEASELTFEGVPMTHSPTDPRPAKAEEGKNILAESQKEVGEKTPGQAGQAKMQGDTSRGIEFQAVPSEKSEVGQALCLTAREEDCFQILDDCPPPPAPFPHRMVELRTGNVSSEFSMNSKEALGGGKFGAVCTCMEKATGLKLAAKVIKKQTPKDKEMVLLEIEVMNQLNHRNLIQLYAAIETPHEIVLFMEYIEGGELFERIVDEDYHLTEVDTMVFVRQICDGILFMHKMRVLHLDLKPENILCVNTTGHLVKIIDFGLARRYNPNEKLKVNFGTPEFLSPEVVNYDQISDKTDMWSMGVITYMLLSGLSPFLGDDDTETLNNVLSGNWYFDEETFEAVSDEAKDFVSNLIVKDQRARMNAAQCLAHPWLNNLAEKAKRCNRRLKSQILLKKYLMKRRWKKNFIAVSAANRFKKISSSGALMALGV

MAPK14 (human) = MAPK14 (human) (UniProt Q16539)
GSK3B (human) = GSK3B (human) (UniProt P49841)
ULK1 (human) = ULK1 (human) (UniProt O75385)
CDK1 CCNB1 (human) = CDK1 CCNB1 (human) (UniProt P06493+P14635)
PRKG1 (human) = PRKG1 (human) (UniProt Q13976)
DYRK1B (human) = DYRK1B (human) (UniProt Q9Y463)
CAMKK1 (human) = CAMKK1 (human) (UniProt Q8N5S9)
PLK3 (human) = PLK3 (human) (UniProt Q9H4B4)
FRK (human) = FRK (human) (UniProt P42685)
Chain of FRK (human) (P42685 whole entry, looked up): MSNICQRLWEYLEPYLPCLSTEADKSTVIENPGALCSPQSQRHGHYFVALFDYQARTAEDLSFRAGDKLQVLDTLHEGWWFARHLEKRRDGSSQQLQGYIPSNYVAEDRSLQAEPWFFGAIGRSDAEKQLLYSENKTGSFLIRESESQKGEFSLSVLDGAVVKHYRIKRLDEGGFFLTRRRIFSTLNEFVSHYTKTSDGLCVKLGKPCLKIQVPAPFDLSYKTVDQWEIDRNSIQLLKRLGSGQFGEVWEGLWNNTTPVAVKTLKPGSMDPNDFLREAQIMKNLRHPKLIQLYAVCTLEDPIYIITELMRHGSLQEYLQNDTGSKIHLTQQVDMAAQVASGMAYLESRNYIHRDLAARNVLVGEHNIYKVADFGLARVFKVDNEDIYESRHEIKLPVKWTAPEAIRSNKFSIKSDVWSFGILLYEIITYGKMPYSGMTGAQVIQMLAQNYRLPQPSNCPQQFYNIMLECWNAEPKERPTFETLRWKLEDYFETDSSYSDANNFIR

NTRK1 (human) = NTRK1 (human) (UniProt P04629)
CDK9 CCNK (human) = CDK9 CCNK (human) (UniProt O75909+P50750)
MAPK3 (human) = MAPK3 (human) (UniProt P27361)
CAMK2G (human) = CAMK2G (human) (UniProt Q13555)
MELK (human) = MELK (human) (UniProt Q14680)
SYK (human) = SYK (human) (UniProt P43405)

Row | Structure (SMILES) | residual activity (CDK5 CDK5R1 p35 (human)) [%] | residual activity (DAPK3 (human)) [%] | residual activity (ROS1 (human)) [%] | residual activity (MAPKAPK3 (human)) [%] | residual activity (PNCK (human)) [%] | residual activity (LTK (human)) [%] | residual activity (MAP3K2 (human)) [%] | residual activity (FGR (human)) [%] | residual activity (EPHA3 (human)) [%] | residual activity (AURKA (human)) [%] | residual activity (CHEK2 (human)) [%] | residual activity (PAK7 (human)) [%] | residual activity (FYN (human)) [%] | residual activity (FGFR2 (human)) [%] | residual activity (PAK1 (human)) [%] | residual activity (GRK6 (human)) [%] | residual activity (PRKCE (human)) [%] | residual activity (CSNK1G2 (human)) [%] | residual activity (PKN1 (human)) [%] | residual activity (MARK1 (human)) [%] | further results
1 | Nc1cccc(-c2cc3c(Oc4cccc(O)c4)ncnc3[nH]2)c1 | 72.2 | 94 | 39.7 | 97.6 | 98.2 | 16.8 | 86.9 | 5.28 | 39.7 | 78.2 | 75.8 | 86.9 | 7.92 | 46.1 | 88 | 98 | 97.4 | 84.9 | 105 | 83 | residual activity (EPHA1 (human)): 31.2%; residual activity (CAMKK2 (human)): 95.9%; residual activity (PRKCH (human)): 90%; residual activity (RPS6KB1 (human)): 95.3%; residual activity (MYLK2 (human)): 29.9%; residual activity (MAPK14 (human)): 98.1%; residual activity (GSK3B (human)): 48.1%; residual activity (ULK1 (human)): 143%; residual activity (CDK1 CCNB1 (human)): 98.9%; residual activity (PRKG1 (human)): 103%; residual activity (DYRK1B (human)): 100%; residual activity (CAMKK1 (human)): 113%; residual activity (PLK3 (human)): 95.7%; residual activity (FRK (human)): 6.95%; residual activity (NTRK1 (human)): 90.5%; residual activity (CDK9 CCNK (human)): 58.4%; residual activity (MAPK3 (human)): 86.9%; residual activity (CAMK2G (human)): 105%; residual activity (MELK (human)): 93.4%; residual activity (SYK (human)): 36.1%
2 | CCN(CC)C(=O)c1ccc(Nc2nc(OCC3CCCCC3)c3nc[nH]c3n2)cc1 | 77.1 | 98.4 | 69.9 | 103 | 117 | 66.1 | 25.3 | 54.2 | 99.9 | 3.03 | 71.3 | 49.1 | 62.6 | 76.6 | 93.8 | 99.5 | 76.6 | 59.8 | 78.9 | 82.7 | residual activity (EPHA1 (human)): 90.2%; residual activity (CAMKK2 (human)): 97.5%; residual activity (PRKCH (human)): 86.7%; residual activity (RPS6KB1 (human)): 89.5%; residual activity (MYLK2 (human)): 94.7%; residual activity (MAPK14 (human)): 94.7%; residual activity (GSK3B (human)): 85%; residual activity (ULK1 (human)): 77.7%; residual activity (CDK1 CCNB1 (human)): 62.4%; residual activity (PRKG1 (human)): 89.8% and 96.1%; residual activity (DYRK1B (human)): 90.2%; residual activity (CAMKK1 (human)): 96.8%; residual activity (PLK3 (human)): 98.1%; residual activity (FRK (human)): 116%; residual activity (NTRK1 (human)): 81.4%; residual activity (CDK9 CCNK (human)): 72.6%; residual activity (MAPK3 (human)): 101%; residual activity (CAMK2G (human)): 95.2%; residual activity (MELK (human)): 76.3%; residual activity (SYK (human)): 61.1%
3 | COc1ccc2c(c[n+](C)c3c4cc5c(cc4ccc23)OCO5)c1OC | 95.7 | 102 | 119 | 83 | 103 | 95.9 | 99.8 | 91.3 | 94.9 | 107 | 96.5 | 77.4 | 101 | 101 | 98.7 | 104 | 93.6 | 96.8 | 101 | 91.4 | residual activity (EPHA1 (human)): 98.3%; residual activity (CAMKK2 (human)): 98.2%; residual activity (PRKCH (human)): 101%; residual activity (RPS6KB1 (human)): 99.8%; residual activity (MYLK2 (human)): 95.3%; residual activity (MAPK14 (human)): 94.1%; residual activity (GSK3B (human)): 88.3%; residual activity (ULK1 (human)): 109%; residual activity (CDK1 CCNB1 (human)): 84.4%; residual activity (PRKG1 (human)): 97.6% and 98.8%; residual activity (DYRK1B (human)): 102%; residual activity (CAMKK1 (human)): 101%; residual activity (PLK3 (human)): 100%; residual activity (FRK (human)): 89.3%; residual activity (NTRK1 (human)): 89.8%; residual activity (CDK9 CCNK (human)): 95.6%; residual activity (MAPK3 (human)): 108%; residual activity (CAMK2G (human)): 95.9%; residual activity (MELK (human)): 89.6%; residual activity (SYK (human)): 98.8%
